Laboratory results as given in PMC9772450, “Gel-forming antagonist provides a lasting effect on CGRP-induced vasodilation” (Frontiers in Pharmacology, 2022).
Where two headings read alike, the source gives them in different places.

Legend:
[1] = cited from earlier work
[2] = Viscosity of peptide solutions, Rheosense viscometer; format: physicochemical; conditions: N = 5 per group, result in words
Method: (§1) To evaluate the ability of peptides to form gels in situ, we initially determined this tendency qualitatively based on visual examinations of peptide solutions using a tube-tapping method. In addition, we quantitatively determined the viscosity of select peptide solutions using a viscometer (Rheosense Inc; http://www.rheosense.com/products/viscometers) ([Yan and Pochan, 2010]). In the visual assay, aliquots of peptides were dissolved in an aqueous solution (i.e., de-ionized water, saline, or 5% glucose solution). The peptide that dissolved instantly and stayed as a clear solution without obvious macroscopic change in viscosity at 20 min after mixing was considered soluble. If macroscopic particles of peptides remained in the solution at 20 min after mixing, the peptide was considered insoluble.
In addition, we quantitatively determined the viscosity of ADE651 and control peptides using the Rheosense viscometer. The peptide solution was loaded onto a Rheosense viscometer chip, and the sample was injected at a constant flow rate through the flow channel with multiple pressure sensors that monitor the pressure drop from the inlet to the outlet. Because the pressure drop is correlated with the shear stress at the boundary wall, the instrument determines the rheological properties based on the standard principles of rheometry ([Yan and Pochan, 2010]).

[3] = test system: capsaicin-induced dermal blood flow; conditions: ref Sinclair et al., 2010; cited from earlier work
Description: It is known that anti-CGRP gepants could occupy a binding site close to the interface of the N-terminal domains of CLR and RAMP1, and act by allosteric regulation ([Miller et al., 2010]). Although the gepants compounds have low IC50 values in receptor activation assays in vitro, it is well documented that gepants need high concentrations to bloc ...

[4] = test system: CGRP-induced vasodilation; experiment: Dermal blood flow and vasodilation in rat hindlimbs, laser Doppler imaging; format: in vivo, Sprague-Dawley rats; conditions: rat hindlimb, ADE651 8 mg in 8% solution s.c. at 0 h
Method: Adult Sprague Dawley male rats (body weight 150–200 g) were randomly divided into treatment groups. Animals were individually housed during the experiment. After acclimation, rats were anesthetized and stabilized under 2.5% isoflurane, and were placed on a heating pad. Testing articles were prepared just before the experiment and individually administered subcutaneously into the hindlimbs. Human β-CGRP (LifeTein LLC, Hillsborough, NJ) was dissolved in a saline solution, and the antagonist solution was prepared in a 5% glucose solution. […] In this experiment, the antagonist gel solution was administered at 0 h as a liquid solution shortly after dissolution to prevent issues associated with the formation of semi-solid gel when the peptide is dissolved at high levels. […] The amount of blood flow was determined by laser Doppler imaging as described earlier ([Van der Schueren et al., 2007]; [Benschop et al., 2014]). The laser Doppler scan series of the hindlimbs began with two baseline scans and was followed by two scans each at select time points. Data are reported as percent change from the average baseline scans.

[5] = Visual (tube-tapping) assay of gel-forming capability and solubility; format: physicochemical; set-up: key to Gel-forming ability: Y: can form a liquid gel; N: lacks the ability to efficiently form a liquid gel
Method: as §1

[6] = Passage of peptide molecules through Centricon filters; format: physicochemical; conditions: Centricon 30,000 MW cutoff, ADM2 EIA
Description: To evaluate whether gel-formation reduces the movement of peptide molecules in solution, we used the Centricon® filters (Millipore) to separate samples and the carriers based on their molecular mass. The sample is monomeric peptides, and the carrier is the self-assembled gel. One milligram aliquots of the peptides were first dissolved as 0.1% solution in 5% glucose, 0.1% solution in saline, 5% solution in 5% glucose, 10% solution in 5% glucose, and 20% solution in 5% glucose. Ten minutes later, the 5%, 10%, and 20% solutions were diluted to the 0.1% level. Aliquots of these solutions were sampled and dispensed into separate Centricon columns (30,000 MW cutoff), and the monomeric peptide and gel molecules were separated by centrifugation for 15 min (2000 x g). The level of peptide in the elutes was determined by specific EIAs (Phoenix Pharmaceuticals Inc.).

[7] = Release of ADE651 from gel solution in vivo (single-dose pharmacokinetics); set-up: species or system Sprague-Dawley rats; conditions: rat
Method: Single-dose pharmacokinetics of gel solution was investigated in male Sprague-Dawley rats. Rats received a peptide solution via the subcutaneous route. Blood samples were collected at pre-dose, 8 h, 1, 2, 4, and 8 days via a catheter that has been cannulated to the jugular vein (Charles River), and 0.5–1.0 ml of blood samples were collected at each time point. The animals were individually housed, plasma was obtained by centrifugation, and the peptide level in samples was determined by specific ADM2 EIAs (Catalogue no. EK-010–48, Phoenix Pharmaceuticals Inc.). It has a 0% cross-reactivity to ADM or CGRPs and has a sensitivity of 0.19 ng/ml. The Inter-assay variation was <15%.

[8] = administered as a 25% gel depot; ref Oberg and Lamberts, 2016; cited from earlier work
Description: Our screening of long-acting antagonists has originally focused on lipidated peptides because lipidation is known to increase the half-lives of various peptides by enabling them to be bound by albumin and other serum proteins, therefore reducing elimination by kidneys and degradation by serum proteases ([Drucker et al., 2010]). […] This finding is consistent with earlier studies of benzoylated and lipidated CGRP8-37 analogs which ha ...

adrenomedullin [ADM, reference compound]
Resident time after subcutaneous injection ([1]; short half-life, ref Nagata et al., 2022): < 1 h | Viscosity of 0.5% and […] solutions in 5% glucose [2]: like that of 5% glucose solution

adrenomedullin 2 [ADM2]
Resident time after subcutaneous injection ([1]; in vivo, sc): < 1 h

O=C(N[C@@H]1CC[C@@H](c2cccc(F)c2F)CN(CC(F)(F)F)C1=O)N1CCC(n2c(=O)[nH]c3ncccc32)CC1 [telcagepant, reference compound]
EC (90) to inhibit the capsaicin-induced increase in dermal blood flow [3]: ~909 nM

CCCCCCCCCCCCCCCC(=O)N[C@@H](CCCCN)C(=O)N[C@H](C(=O)N[C@@H](CCC(N)=O)C(=O)N[C@@H](CCCCN)C(=O)N[C@@H](CC(C)C)C(=O)N[C@@H](CO)C(=O)N[C@@H](C)C(=O)N1CCC[C@H]1C(=O)N[C@H](C(=O)N[C@@H](CC(=O)O)C(=O)N1CCC[C@H]1C(=O)N[C@@H](CO)C(=O)N[C@@H](CO)C(=O)N1CCC[C@H]1C(=O)N[C@@H](Cc1c[nH]cn1)C(=O)N[C@@H](CO)C(=O)N[C@@H](Cc1ccc(O)cc1)C(N)=O)C(C)C)C(C)C [ADE651]
CGRP-induced increase in blood flow at the 5 h time point after ADE651 pretreatment ([4]; CGRP 1 mg/100 µL at 4 h, N = 3): 6% | Blood flow before the CGRP treatment (4 h time point) versus control animals ([4]; result in words): significantly lower | Appearance of solution in saline at 6–20% ([5]; visual): cloudy | Solubility in 5% glucose solution ([5]; visual): soluble from 0.1% to 20% | Solubility in saline ([5]; visual): low solubility | Gel-forming ability ([5]; visual inspection of 11% peptide solutions, tube-tapping, 20 min after mixing): Y | Concentration at which the peptide solution forms a gel (becomes viscous) ([5]; visual, 20 min after dissolution, vial tilted 90° and tapped): 6–20% | Reduction of peptide level in the elutes from 5%, 10% and 20% solution groups compared to the 0.1% solution group ([6]; 2000 x g 15 min, dissolved in 5% glucose, diluted to 0.1% after 10 min, triplicate samples): more than 98% | Peptide level in the elute from the 0.1% saline group versus 0.1% solution in 5% glucose group ([6]; N = 3 per group, result in words): significantly lower | Viscosity of 0.5% solution in 5% glucose ([2]; compared with water, saline, 5% glucose, 0.5% and […] ADM): significantly higher than that of all other solutions evaluated | Tmax ([7]; male, Sprague-Dawley, sc, subcutaneous, 200 µL of 16% solution (32 mg), plasma, ADM2 EIA, three animals, read-out: Time of peak circulating level after administration): 8 h | Sustained presence in the circulation after subcutaneous injection ([7]; subcutaneous gel solution): > 1 week | Circulating level at 8 days after injection ([7]; subcutaneous, 16% solution (32 mg), plasma, ADM2 EIA, versus 0 h, result in words): significantly elevated

Lanreotide
Period over which the gel releases the monomer [8]: a month
